From PubChem BioAssay AID2060599 (Molecular Pharmacology Branch, DTP, NCI, 2025)
Values belong to the molecule of their own block, whether it stands above or below them.

Tested on: 817829-284-R-J1-PDC complex spheroids, viability
Assay: Anticancer human tumor 817829-284-R-J1-PDC patient-derived colon adenocarcinoma cell line growth inhibition [CLK]
Settings: for viability, T/C: stronger effect = lower value
How it was run: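 Patient-derived tumor cells grown as complex spheroids with HUVEC endothelial cells and mesenchymal stem cells, treated with drug combinations. Concentrations descend in half-log steps from near clinical Cmax, or from 10 microM if Cmax unknown.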

[1] = curve of first compound, second compound 0.0316 µM
[2] = curve of first compound, second compound 0.1 µM
[3] = curve of first compound, second compound 0.316 µM
[4] = curve of first compound, second compound 1 µM
[5] = curve of first compound, second compound 3.16 µM
[6] = curve of first compound, second compound 10 µM
[7] = second compound 0.0316 µM, first compound 0.0316 µM
[8] = second compound 0.0316 µM, first compound 0.1 µM
[9] = second compound 0.0316 µM, first compound 0.316 µM
[10] = second compound 0.0316 µM, first compound 1 µM
[11] = second compound 0.1 µM, first compound 0.0316 µM
[12] = second compound 0.1 µM, first compound 0.1 µM
[13] = second compound 0.1 µM, first compound 0.316 µM
[14] = second compound 0.1 µM, first compound 1 µM
[15] = second compound 0.316 µM, first compound 0.0316 µM
[16] = second compound 0.316 µM, first compound 0.1 µM
[17] = second compound 0.316 µM, first compound 0.316 µM
[18] = second compound 0.316 µM, first compound 1 µM
[19] = second compound 1 µM, first compound 0.0316 µM
[20] = second compound 1 µM, first compound 0.1 µM
[21] = second compound 1 µM, first compound 0.316 µM
[22] = second compound 1 µM, first compound 1 µM
[23] = second compound 3.16 µM, first compound 0.0316 µM
[24] = second compound 3.16 µM, first compound 0.1 µM
[25] = second compound 3.16 µM, first compound 0.316 µM
[26] = second compound 3.16 µM, first compound 1 µM
[27] = second compound 10 µM, first compound 0.0316 µM
[28] = second compound 10 µM, first compound 0.1 µM
[29] = second compound 10 µM, first compound 0.316 µM
[30] = second compound 10 µM, first compound 1 µM
[31] = second compound 0.0316 µM, first compound 3.16 µM
[32] = second compound 0.0316 µM, first compound 10 µM
[33] = second compound 0.1 µM, first compound 3.16 µM
[34] = second compound 0.1 µM, first compound 10 µM
[35] = second compound 0.316 µM, first compound 3.16 µM
[36] = second compound 0.316 µM, first compound 10 µM
[37] = second compound 1 µM, first compound 3.16 µM
[38] = second compound 1 µM, first compound 10 µM
[39] = second compound 3.16 µM, first compound 3.16 µM
[40] = second compound 3.16 µM, first compound 10 µM
[41] = second compound 10 µM, first compound 3.16 µM
[42] = second compound 10 µM, first compound 10 µM
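Note: spheroids exposed to the agents for seven days before readout.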

IC50 [1]: < 3.16 nM
IC50 [2]: < 3.16 nM
IC50 [3]: < 3.16 nM
IC50 [4]: < 3.16 nM
IC50 [5]: < 3.16 nM
IC50 [6]: < 3.16 nM
Compound: CCc1c2c(nc3ccc(O)cc13)-c1cc3c(c(=O)n1C2)COC(=O)[C@]3(O)CC + CNC(=O)c1ccc(Nc2nc(OC3CCCC3)c3c(-c4ccc5nc(C)oc5c4)c[nH]c3n2)c(OC)c1
viability, T/C (second compound 0.0316 µM, first compound 0.00316 µM): 18.9%
viability, T/C (second compound 0.0316 µM, first compound 0.01 µM): 16.6%
viability, T/C [7]: 13.2%
viability, T/C [8]: 9.4%
viability, T/C [9]: 6.53%
viability, T/C [10]: 4.13%
viability, T/C (second compound 0.1 µM, first compound 0.00316 µM): 21.3%
viability, T/C (second compound 0.1 µM, first compound 0.01 µM): 17.2%
viability, T/C [11]: 13.2%
viability, T/C [12]: 9.71%
viability, T/C [13]: 7.28%
viability, T/C [14]: 4.24%
viability, T/C (second compound 0.316 µM, first compound 0.00316 µM): 17.3%
viability, T/C (second compound 0.316 µM, first compound 0.01 µM): 17%
viability, T/C [15]: 13%
viability, T/C [16]: 7.86%
viability, T/C [17]: 5.8%
viability, T/C [18]: 3.35%
viability, T/C (second compound 1 µM, first compound 0.00316 µM): 15.2%
viability, T/C (second compound 1 µM, first compound 0.01 µM): 12.4%
viability, T/C [19]: 7.9%
viability, T/C [20]: 5.92%
viability, T/C [21]: 4.02%
viability, T/C [22]: 2.78%
viability, T/C (second compound 3.16 µM, first compound 0.00316 µM): 13.2%
viability, T/C (second compound 3.16 µM, first compound 0.01 µM): 9.13%
viability, T/C [23]: 6.71%
viability, T/C [24]: 6.34%
viability, T/C [25]: 4.45%
viability, T/C [26]: 2.73%
viability, T/C (second compound 10 µM, first compound 0.00316 µM): 11.9%
viability, T/C (second compound 10 µM, first compound 0.01 µM): 8.01%
viability, T/C [27]: 7.69%
viability, T/C [28]: 4.85%
viability, T/C [29]: 4.44%
viability, T/C [30]: 2.57%

IC50 (curve of compound): 465 nM
Compound: Nc1ccccc1NC(=O)c1ccc(CNC(=O)OCc2cccnc2)cc1
viability, T/C (compound 0.0316 µM): 89%
viability, T/C (compound 0.1 µM): 85.3%
viability, T/C (compound 0.316 µM): 53.5%
viability, T/C (compound 1 µM): 35.9%
viability, T/C (compound 3.16 µM): 10%
viability, T/C (compound 10 µM): 0.1%

Compound: CC1(C)CCC(CN2CCN(c3ccc(C(=O)NS(=O)(=O)c4ccc(NCC5CCOCC5)c([N+](=O)[O-])c4)c(Oc4cnc5[nH]ccc5c4)c3)CC2)=C(c2ccc(Cl)cc2)C1 + CN1CCN(c2cc(C(=O)Nc3cc4cc(-c5cnn(C)c5)ccc4cn3)ccn2)CC1
IC50 [1]: 4030 nM
IC50 [2]: < 31.6 nM
IC50 [3]: < 31.6 nM
IC50 [4]: < 31.6 nM
IC50 [5]: < 31.6 nM
IC50 [6]: < 31.6 nM
viability, T/C [7]: 92.8%
viability, T/C [8]: 64.9%
viability, T/C [9]: 46.8%
viability, T/C [10]: 80.8%
viability, T/C [31]: 63.2%
viability, T/C [32]: 1.02%
viability, T/C [11]: 18%
viability, T/C [12]: 19.6%
viability, T/C [13]: 16.1%
viability, T/C [14]: 18.4%
viability, T/C [33]: 20%
viability, T/C [34]: 0.96%
viability, T/C [15]: 1.84%
viability, T/C [16]: 1.97%
viability, T/C [17]: 1.65%
viability, T/C [18]: 2.48%
viability, T/C [35]: 1.41%
viability, T/C [36]: 0.06%
viability, T/C [19]: 0.11%
viability, T/C [20]: 0.09%
viability, T/C [21]: 0.08%
viability, T/C [22]: 0.09%
viability, T/C [37]: 0.09%
viability, T/C [38]: 0.06%
viability, T/C [23]: 0.12%
viability, T/C [24]: 0.12%
viability, T/C [25]: 0.12%
viability, T/C [26]: 0.11%
viability, T/C [39]: 0.13%
viability, T/C [40]: 0.07%
viability, T/C [27]: 0.06%
viability, T/C [28]: 0.07%
viability, T/C [29]: 0.09%
viability, T/C [30]: 0.09%
viability, T/C [41]: 0.17%
viability, T/C [42]: 0.1%

IC50 [1]: < 31.6 nM
IC50 [2]: < 31.6 nM
IC50 [3]: < 31.6 nM
IC50 [4]: < 31.6 nM
IC50 [5]: < 31.6 nM
IC50 [6]: < 31.6 nM
Compound: O=C(c1cc(Cc2n[nH]c(=O)c3ccccc23)ccc1F)N1CCN(C(=O)C2CC2)CC1 + CNC(=O)c1ccc(Nc2nc(OC3CCCC3)c3c(-c4ccc5nc(C)oc5c4)c[nH]c3n2)c(OC)c1
viability, T/C [7]: 30.4%
viability, T/C [8]: 42.9%
viability, T/C [9]: 38%
viability, T/C [10]: 26.7%
viability, T/C [31]: 31.5%
viability, T/C [32]: 22.4%
viability, T/C [11]: 24.2%
viability, T/C [12]: 19.2%
viability, T/C [13]: 30.9%
viability, T/C [14]: 22.9%
viability, T/C [33]: 24.2%
viability, T/C [34]: 24.6%
viability, T/C [15]: 26.9%
viability, T/C [16]: 22%
viability, T/C [17]: 27.7%
viability, T/C [18]: 31.5%
viability, T/C [35]: 25%
viability, T/C [36]: 17.2%
viability, T/C [19]: 22.3%
viability, T/C [20]: 20.1%
viability, T/C [21]: 20%
viability, T/C [22]: 17.8%
viability, T/C [37]: 16.9%
viability, T/C [38]: 14.7%
viability, T/C [23]: 21.9%
viability, T/C [24]: 20.9%
viability, T/C [25]: 19.4%
viability, T/C [26]: 25.5%
viability, T/C [39]: 18.5%
viability, T/C [40]: 22%
viability, T/C [27]: 21.9%
viability, T/C [28]: 22.9%
viability, T/C [29]: 30.8%
viability, T/C [30]: 18.1%
viability, T/C [41]: 15.8%
viability, T/C [42]: 15.3%
